{
  "source": "paper PMC2229530",
  "about": "(The Journal of General Physiology, 2002)",
  "key": {"sodium pump [1]": {"target": "sodium pump (Homo sapiens, UniProt P05023)", "format": "cell-based", "details": "for Slope of replot of A versus inhibitor concentration (unprotonated pump) / Slope of replot of B versus inhibitor concentration (protonated pump): 0.3 mM rubidium; for Slope of replot of A versus inhibitor concentration (unprotonated pump): Fig. 4a; for Slope of replot of B versus inhibitor concentration (protonated pump): Fig. 4b"}, "sodium pump [2]": {"target": "sodium pump (Rattus norvegicus, UniProt P06685)", "sequence (Q63377 whole entry, other chains not shown)": "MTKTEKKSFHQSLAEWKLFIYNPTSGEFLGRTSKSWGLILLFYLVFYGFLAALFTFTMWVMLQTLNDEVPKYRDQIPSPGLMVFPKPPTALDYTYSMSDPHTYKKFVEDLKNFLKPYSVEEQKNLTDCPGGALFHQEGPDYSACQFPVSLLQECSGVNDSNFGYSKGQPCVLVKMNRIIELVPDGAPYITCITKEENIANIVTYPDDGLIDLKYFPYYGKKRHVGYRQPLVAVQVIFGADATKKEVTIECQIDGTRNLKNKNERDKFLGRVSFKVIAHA", "format": "cell-based"}},
  "data": [
    {"smiles": "[Rb]", "note": "[rubidium]", "values": [
      {"measurement": "Slope of replot of A versus 1/[Rb]", "setting": "sodium pump [1]; human red blood cells, A normalized to y intercept 1, Fig. 2b", "value": "1.32 ± 0.07"},
      {"measurement": "Slope of replot of B versus 1/[Rb]", "setting": "sodium pump [1]; human red blood cells, Fig. 2b", "value": "0.0387 ± 0.0074"},
      {"measurement": "KRb, kinetic constant for rubidium binding to the unprotonated pump", "setting": "sodium pump [1]; human red cells, from replot of A vs 1/Rb, 37°C", "value": "1.32 ± 0.07", "unit": "mM"},
      {"measurement": "LRb, kinetic constant for rubidium binding to the protonated pump", "setting": "sodium pump [1]; human red cells, from replot of B vs 1/Rb, 37°C", "value": "0.0387 ± 0.0074", "unit": "mM"},
      {"measurement": "Slope of replot of A versus 1/[Rb]", "setting": "sodium pump [2]; rat red blood cells, A normalized to y intercept 1, Fig. 2a", "value": "0.868 ± 0.101"},
      {"measurement": "Slope of replot of B versus 1/[Rb]", "setting": "sodium pump [2]; rat red blood cells, Fig. 2a", "value": "0.066 ± 0.0059"},
      {"measurement": "Fold decrease by protons of the kinetic constant / Ki", "setting": "sodium pump [2]; rat red cells", "value": "~13", "unit": "fold"},
      {"measurement": "KRb, kinetic constant for rubidium binding to the unprotonated pump", "setting": "sodium pump [2]; rat red cells, from replot of A vs 1/Rb, 37°C", "value": "0.87 ± 0.1", "unit": "mM"},
      {"measurement": "LRb, kinetic constant for rubidium binding to the protonated pump", "setting": "sodium pump [2]; rat red cells, from replot of B vs 1/Rb, 37°C", "value": "0.066 ± 0.006", "unit": "mM"}
    ]},
    {"smiles": "C[C@@H]1O[C@@H](O[C@H]2C[C@@H](O)[C@]3(CO)[C@H]4[C@H](O)C[C@]5(C)[C@@H](C6=CC(=O)OC6)CC[C@]5(O)[C@@H]4CC[C@]3(O)C2)[C@H](O)[C@H](O)[C@H]1O", "note": "[ouabain]", "values": [
      {"measurement": "Fold decrease by protons of the kinetic constant / Ki", "setting": "sodium pump [2]; rat red cells", "value": 2.2, "unit": "fold"},
      {"measurement": "Fold increase of the kinetic constant for protons caused by the ligand", "setting": "sodium pump [2]; rat red cells", "value": 2.2, "unit": "fold"}
    ]},
    {"smiles": "CC[N+](C)(C)Cc1ccccc1Br", "note": "[bretylium]", "values": [
      {"measurement": "Slope of replot of A versus inhibitor concentration (unprotonated pump)", "setting": "sodium pump [1]; human red blood cells", "value": "0.392 ± 0.078"},
      {"measurement": "Slope of replot of B versus inhibitor concentration (protonated pump)", "setting": "sodium pump [1]; human red blood cells", "value": "0.282 ± 0.019"}
    ]},
    {"smiles": "[H+]", "note": "[protons]", "values": [
      {"measurement": "Kd", "setting": "sodium pump [2]; read-out: KH, proton binding to the pump in the absence of rubidium, rat pump, unloaded", "value": 2.11, "unit": "nM"}
    ]},
    {"smiles": "N=C(N)N.O=[N+]([O-])O", "note": "[guanidinium, Guanidium (guanidine) nitrate]", "values": [
      {"measurement": "Slope of replot of A versus inhibitor concentration (unprotonated pump)", "setting": "sodium pump [1]; human red blood cells", "value": "0.175 ± 0.014"},
      {"measurement": "Slope of replot of B versus inhibitor concentration (protonated pump)", "setting": "sodium pump [1]; human red blood cells", "value": "0.016 ± 0.001"}
    ]},
    {"smiles": "[Na+]", "note": "[sodium]", "values": [
      {"measurement": "Slope of replot of A versus inhibitor concentration (unprotonated pump)", "setting": "sodium pump [1]; human red blood cells", "value": "0.271 ± 0.037"},
      {"measurement": "Slope of replot of B versus inhibitor concentration (protonated pump)", "setting": "sodium pump [1]; human red blood cells", "value": "0.040 ± 0.006"},
      {"measurement": "Fold increase by protons of the kinetic constant", "setting": "sodium pump [2]; rat red cells", "value": 7.1, "unit": "fold"}
    ]}
  ]
}
